{"source": "patent US9018248B2", "about": "“Fatty acid derivatives of catechins and methods of their use” (Genesis Group Inc., priority 2010, dated 2015)", "experiment": "TBARS formation in cooked pork model system", "details": "80 μmol/kg meat, stored at 4° C.", "method": "Fresh ground pork (40 g) was mixed with deionized water (10 g) in a Mason jar. Samples and reference antioxidant compound (BHA) dissolved in ethanol were added to meat at a level of 80 μmol/kg. A control without any antioxidant was also prepared. The content was thoroughly mixed and cooked at 80° C. in a thermostated water bath for 40 min with intermittent stirring. The cooked meat was cooled to room temperature and homogenized with a Polytron PT 3000 (Brinkmann Instruments, Rexdale, ON) homogenizer. The homogenate was then transferred into plastic bags and stored at 4° C. for 14 days. […].\nTBARS values were determined as described by Shahidi and Hong (Shahidi, F. and Hong, C. Evaluation of malonaldehyde as a marker of oxidative rancidity in meat products. J. Food Biochem. 15, 97-105, 1991).\nA series of TMP (1,1,3,3-tetramethoxypropane) standard solutions at difference concentrations was mixed with thiobarbituric acid (TBA) in screw-capped tubes and heated in a boiling water bath for 45 min. After cooling on ice, the absorbance was recorded at 532 nm and a standard curve was constructed (absorbance versus concentration). For TBARS in the cooked meat model system, 2 g of meat were mixed with 5 ml of trichloroacetic acid (TCA, 10% w/v) in a centrifuge tube, followed by addition of 5 ml of TBA reagent. The mixture was centrifuged at 3000×g for 10 min and the supernatant was filtered. The filtrate was heated in a boiling water bath for 45 min and absorbance was measured at 532 nm after cooling to room temperature. TBARS values in meat samples were obtained using the standard curve as μmol malonaldehyde equivalents/kg of meat. Antioxidant activity was calculated as percentage inhibition of TBARS formation by test compounds."}
{"smiles": "COc1ccc(O)c(C(C)(C)C)c1", "note": "[BHA, reference compound]", "values": [{"measurement": "Inhibition of TBARS formation in cooked pork", "result": "83.3 ± 2.34^ab %"}]}
